From patent publication US6030975A, “Carboxylic acid derivatives, their preparation and use in treating cancer” (priority 1997, dated 2000)
Each block holds one molecule with its values, some of them ahead of it.

Assays:
[1] = tested on: DU-145 prostate tumor; test: DU-145 Model: human prostate (HTB 81) tumor fragments implanted subcutaneously in nude mice; assay type: in vivo
Procedure: For example, human tumors which have been grown in nude mice can be transplanted into new recipient mice using tumor fragments which are about 50 mg in size. The day of transplantation is designated as day 0. Five to fifteen days later, the mice are treated with the test compounds given as an intravenous or intraperitoneal injection, in groups of five to ten mice at each dose. Compounds are given daily for either 5, 10 or 15 days, at dosed from 0.1-1000 mg/kg of body weight.
Tumor diameters and body weights are measured periodically. Tumor mass is calculated using the diameters measured with Vernier calipers, and the formula:
(length×width2)/2=mg of tumor weight
Mean tumor weights are calculated for each treatment group relative to the untreated control tumors. The DU-145 Model is a specific example of this type of assay and is described below.
Human tumor fragments from prostate (HTB 81), which had been grown in nude mice were implanted subcutaneously via trochar, in the dorsal side of new recipient nude mice, as is well known in the art. The day of implantation is designated as day 0.
Treatment was commenced on day 11 post implantation using Compound I-1 of Table I. There were 6 mice in each treatment group with the mode of administration and amounts administered (mg/kg of body weight) described in Table XI. Compound I-1 was administered once a day for 10 days commencing, as earlier stated, at day 11 post implantation (Q1D×10:11).

[2] = target: T1, human ETA receptor (Homo sapiens, UniProt P25101); test: ETA receptor binding assay ([125I]-ET1) on membranes of CHO cells expressing cloned human ETA receptor; details: Table III
T1 construct: expressed in transfected cells; host or cells: CHO cells
T1 sequence (P25101 21-427): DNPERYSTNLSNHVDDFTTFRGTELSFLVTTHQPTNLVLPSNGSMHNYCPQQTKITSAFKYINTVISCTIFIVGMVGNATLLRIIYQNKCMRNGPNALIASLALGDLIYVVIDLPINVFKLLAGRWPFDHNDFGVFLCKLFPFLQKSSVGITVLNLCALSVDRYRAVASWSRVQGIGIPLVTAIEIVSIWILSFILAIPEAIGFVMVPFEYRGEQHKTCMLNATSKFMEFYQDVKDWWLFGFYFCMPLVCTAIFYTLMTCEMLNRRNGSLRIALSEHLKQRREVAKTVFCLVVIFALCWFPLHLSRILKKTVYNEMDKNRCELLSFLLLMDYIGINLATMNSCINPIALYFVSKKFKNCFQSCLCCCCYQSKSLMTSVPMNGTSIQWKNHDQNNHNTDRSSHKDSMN
Procedure: (§1) Cloned human ETA receptor-expressing CHO cells and guinea pig cerebellar membranes with >60% ETB compared with ETA receptors were used for binding studies.
The ETA receptor-expressing CHO cells were grown in F12 medium containing 10% fetal calf serum, 1% glutamine, 100 U/ml penicillin and 0.2% streptomycin (Gibco BRL, Gaithersburg, Md., USA). After 48 h, the cells were washed with PBS and incubated with 0.05% trypsin-containing PBS for 5 min. Neutralization was then carried out with F12 medium, and the cells were collected by centrifugation at 300×g. To lyze the cells, the pellet was briefly washed with lysis buffer (5 mM Tris-HCl, pH 7.4 with 10% glycerol) and then incubated at a concentration of 10^7 cells/ml of lysis buffer at 4° C. for 30 min. The membranes were centrifuged at 20,000×g for 10 min., and the pellet was stored in liquid nitrogen.
(§2) The nonspecific binding was determined using 10^-7 M ET1. After 30 min., the free and bound radioligand were separated by filtration through GF/B glass fiber filters (Whatman, England) on a Skatron cell collector (Skatron, Lier, Norway) and the filters were washed with ice-cold Tris-HCl buffer, pH 7.4 with 0.2% BSA. The radioactivity collected on the filters was quantified using a Packard 2200 CA liquid scintillation counter.
The Ki values shown in Table A were determined by non-linear regression analysis using the LIGAND program.

[3] = target: T2, ETB receptor (Cavia porcellus, UniProt H0VTF3); test: ETB receptor binding assay ([125I]-RZ3) on guinea pig cerebellar membranes; details: Table III
T2 construct: Guinea pig cerebella were homogenized; from tissue; host or cells: guinea pig cerebellum membranes
T2 sequence (H0VTF3 27-415): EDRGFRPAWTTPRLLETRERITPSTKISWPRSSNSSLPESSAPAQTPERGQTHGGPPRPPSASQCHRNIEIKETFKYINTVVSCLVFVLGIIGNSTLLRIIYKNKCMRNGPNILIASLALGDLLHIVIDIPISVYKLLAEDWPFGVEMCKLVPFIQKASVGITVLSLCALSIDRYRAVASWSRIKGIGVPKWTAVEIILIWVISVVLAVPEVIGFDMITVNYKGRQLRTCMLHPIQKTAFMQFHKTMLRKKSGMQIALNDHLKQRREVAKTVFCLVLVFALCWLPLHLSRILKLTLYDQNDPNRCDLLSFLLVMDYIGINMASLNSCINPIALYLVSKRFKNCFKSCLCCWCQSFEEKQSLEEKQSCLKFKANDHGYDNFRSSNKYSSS
Procedure: as §1
Guinea pig cerebella were homogenized in a Potter-Elvejhem homogenizer and membranes were obtained by differential centrifugation at 1000×g for 10 min. and repeated centrifugation of the supernatant at 20,000×g for 10 min.
as §2

SMILES: COC(=O)C(Oc1nc(OC)cc(OC)n1)C(OC)(c1ccccc1)c1ccccc1 (stereo not drawn) [Compound I-1, Methyl 2-(4,6-dimethoxy-pyrimidin-2-yloxy)-3-methoxy-3,3-diphenylpropionate]
Days for Tumor Weight = 1000 mg ([1]; 100 mg/kg IV, Q1Dx10:11): 39.3 days
Mean Tumor Weight (MTW) on Day 33 ([1]; 100 mg/kg IV, Q1Dx10:11): 561 mg
Days for Tumor Weight = 1000 mg ([1]; 150 mg/kg IP, Q1DX10:11): 59.3 days
Mean Tumor Weight (MTW) on Day 33 ([1]; 150 mg/kg IP, Q1DX10:11): 407 mg
Days for Tumor Weight = 1000 mg ([1]; 150 mg/kg IV, Q1DX10:11): 37.4 days
Mean Tumor Weight (MTW) on Day 33 ([1]; 150 mg/kg IV, Q1DX10:11): 793 mg
Days for Tumor Weight = 1000 mg ([1]; 220 mg/kg IP, Q1DX10:11): 50.9 days
Mean Tumor Weight (MTW) on Day 33 ([1]; 220 mg/kg IP, Q1DX10:11): 470 mg
MTW % T/C ([1]; Day 33, 100 mg/kg IV, Q1Dx10:11): 45.54%
MTW % T/C ([1]; Day 33, 150 mg/kg IP, Q1DX10:11): 33.04%
MTW % T/C ([1]; Day 33, 150 mg/kg IV, Q1DX10:11): 64.37%
MTW % T/C ([1]; Day 33, 220 mg/kg IP, Q1DX10:11): 38.15%
response to administration (reduction in the %T/C Mean Tumor Weight) ([1]; all doses, IV and IP): all treatment groups responded

Ki [2]: 6 nM
SMILES: COc1cc(OC)nc(OC(C(=O)O)C(OC)(c2ccccc2)c2ccccc2)n1 (stereo not drawn) [Compound I-2, 2-(4,6-Dimethoxy-pyrimidin-2-yloxy)-3-methoxy-3,3-diphenylpropionic acid]

Ki [2]: 7 nM
SMILES: CCOC(c1ccccc1)(c1ccccc1)C(Oc1nc(OC)cc(OC)n1)C(=O)O (stereo not drawn) [Compound I-4]

Ki [2]: 19 nM
SMILES: CCCOC(c1ccccc1)(c1ccccc1)C(Oc1nc(OC)cc(OC)n1)C(=O)O (stereo not drawn) [Compound I-12]

Ki [2]: 33 nM
Ki [3]: 970 nM
SMILES: COc1cc(OC)nc(OC(C(=O)O)C(OC)(c2ccc(F)cc2)c2ccc(F)cc2)n1 (stereo not drawn) [Compound I-60]
